We go through 19 compounds from patent US11339151B2, “Aliphatic acid amide derivative” (Sumitomo Dainippon Pharma Co., Ltd., priority 2019, dated 2022).

The target in data set [1] is T1, human 5-HT7 receptor (Homo sapiens (Human), UniProt P34969). In words: Test 1: binding activity for human 5-HT7 receptor ([3H]SB-269970, CHO cell membrane fraction). The following applies: [3H]SB-269970, room temperature 60 minutes. Here is the method:
(§1) Ki value was evaluated from dissociation constant which was calculated from saturated binding tests, and a substrate concentration, and it was used as an index for binding affinity.

The target of another data set is human D2 receptor (Homo sapiens (Human), UniProt P14416). In words: Test 1: binding activity for human D2 receptor ([3H]Spiperone, CHO cell membrane fraction). The following applies: [3H]Spiperone, room temperature 60 minutes. Here is the method:
as §1

The next data set deals with human 5-HT2A receptor (Homo sapiens (Human), UniProt P28223). In words: Test 2: antagonist activity for human 5-HT2A receptor (aequorin luminescence, CHO-K1 cells). The class given is cell-based. The note with it: Gα16. Here is the method:
(§2) Test 2: Evaluation of Antagonist Activity for Human 5-HT2A Receptor and Human 5-HT7 Receptor
(§3) Aequorin, Gα 16 protein, and each receptor were transiently expressed in CHO-K1 cells (Chinese hamster ovary). The cells were cultivated in a CO2 incubator at 37° C. overnight, seeded into a 384-well plate, and stood at room temperature for 2 hours. Each compound dissolved in DMSO was added thereto, and changes in luminescence were measured by FDSS/μCELL drug discovery screening support system (Hamamatsu Photonics K.K.). As for antagonist activity, inhibitory activity of each compound was calculated by setting the luminescence level of wells to which 10 μmol/L endogenous ligand was added as 100%.

Data set [2] addresses T1, human 5-HT7 receptor. In words: Test 2: antagonist activity for human 5-HT7 receptor (aequorin luminescence, CHO-K1 cells). The note with it: Gα16. The class given is cell-based. Here is the method:
as §2, §3

Data set [3] is described as follows: Test 3-1: metabolic stability test in human hepatic microsome. The class given is in vitro ADME. The following applies: microsome 0.1 mg/mL, test compound 0.1 μmol/L, 37° C., 30 minutes. On the procedure: Test 3-1: Metabolic Stability Test in Human Hepatic Microsome
(§4) The metabolic stability of the present compound in human hepatic microsome was evaluated as mentioned below. Human hepatic microsome was obtained from Xenontech. Human hepatic microsome, NADPH, and each test compound were mixed in 25 mmol/L phosphate buffer solution (pH 7.4) to reach the following concentrations as shown below, and the mixture was incubated at 37° C. for 30 minutes. • Human hepatic microsome: 0.1 mg/mL • NADPH: 3.2 mmol/L • Test compound: 0.1 μmol/L
The residual ratio of test compound in each sample after 30 minutes was measured by LC-MS, and the metabolic stability in human hepatic microsome was calculated from the following formula. Metabolic stability in human hepatic microsome (mL/min/mg protein)=−LN (residual ratio)/30/0.1

A short description of data set [4]: Test 3-2: metabolic stability test in human hepatic microsome. The class given is in vitro ADME. The note with it: microsome 0.5 or 1.0 mg/mL, test compound 0.1 μmol/L, 30 or 60 minutes. Here is the method:
Test 3-2: Metabolic Stability Test in Human Hepatic Microsome
as §4, with “For more accurate evaluation of the metabolic stability in human hepatic microsome, the metabolic” for “The metabolic”, “evaluated at an appropriate concentration of human hepatic microsome” for “evaluated”, “for 60” for “for 30”, “microsome: 0.5 or 1.0” for “microsome: 0.1”, “• NAPDH:” for “• NADPH:”
The residual ratio of a test compound in each sample after 30 or 60 minutes was measured by LC-MS, and the metabolic stability in human hepatic microsome was calculated from the following formula. Metabolic stability in human hepatic microsome (mL/min/mg protein)=−LN (residual ratio)/reaction time/concentration of human hepatic microsome

The nature of data set [5]: Test 4: predictive test of human half life. The following applies: calculated from rat distribution volume, serum unbound fraction and Test 3-2 stability. On the procedure: Test 4: Predictive Test of Human Half Life
The present compound was intravenously administered to a rat as an aqueous solution of 0.01 mol/L hydrochloric acid. Blood was collected on 5 minutes, 15 minutes, 30 minutes, 1 hour, 2 hours, 4 hours, 6 hours, and 24 hours after the administration. Plasma was obtained from the collected blood, the drug concentration in plasma was measured by LC-MS, and the distribution volume of rat was calculated from the transition of the concentration.
The unbound fraction rate of the present compound in human or rat serum was measured by equilibrium dialysis method.
The half-life in human was calculated according to the following formula using the results of the distribution volume of rat, the unbound fraction rate in human or rat serum, and the metabolic stability in human hepatic microsome obtained in Test 3-2.

The next data set has as its target hERG channel (Homo sapiens (Human), UniProt Q12809). In words: Test 5: inhibitory activity for hERG channel (whole cell patch clamp, hERG-CHO cells). The class given is cell-based. The following applies: hERG-CHO cells, auto patch clamp. Here is the method: Test 5: Evaluation of Inhibitory Activity for hERG Channel
Inhibitory activity of the present compound for hERG channel was measured by whole cell patch clamp method with an auto patch clamp system using CHO cells in which hERG channel involved in human rapidly activating delayed rectifier potassium current (IKr) was forcibly expressed.
hERG-CHO cells purchased from ChanTest Cop. were cultured in a CO2 incubator at 37° C., and dissociated from a flask with trypsin shortly before the measurement of hERG current to prepare a cell suspension.
The cell suspension, the extracellular fluid, the intracellular fluid, and the measurement plate were set in an auto patch clamp system, and hERG current was measured by whole cell patch clamp method. […] Each pulse interval was 15 seconds. The data analysis was carried out with Qube Assay Software (Sophion Sophion). The test was carried out by applying incrementally 4 concentrations of each test compound, and the average of the maximum peak tail currents which were obtained from the last 3 stimulations in each concentration was determined as the evaluated data.

Molecules are shown by their SMILES.

T1 sequence (P34969 whole entry): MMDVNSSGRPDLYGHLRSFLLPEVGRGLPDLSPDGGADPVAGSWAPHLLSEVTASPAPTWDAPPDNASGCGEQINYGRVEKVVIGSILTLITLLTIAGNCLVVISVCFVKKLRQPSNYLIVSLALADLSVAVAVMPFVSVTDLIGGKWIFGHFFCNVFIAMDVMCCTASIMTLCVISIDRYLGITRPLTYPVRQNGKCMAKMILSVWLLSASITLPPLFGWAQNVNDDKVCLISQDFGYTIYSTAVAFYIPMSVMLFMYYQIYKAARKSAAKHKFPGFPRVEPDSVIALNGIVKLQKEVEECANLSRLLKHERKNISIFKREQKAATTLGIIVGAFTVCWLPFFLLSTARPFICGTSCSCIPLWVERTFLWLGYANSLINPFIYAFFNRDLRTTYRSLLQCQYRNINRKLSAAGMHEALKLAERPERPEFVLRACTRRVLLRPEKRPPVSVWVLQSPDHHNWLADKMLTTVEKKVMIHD
Chain of hERG channel (Q12809 whole entry): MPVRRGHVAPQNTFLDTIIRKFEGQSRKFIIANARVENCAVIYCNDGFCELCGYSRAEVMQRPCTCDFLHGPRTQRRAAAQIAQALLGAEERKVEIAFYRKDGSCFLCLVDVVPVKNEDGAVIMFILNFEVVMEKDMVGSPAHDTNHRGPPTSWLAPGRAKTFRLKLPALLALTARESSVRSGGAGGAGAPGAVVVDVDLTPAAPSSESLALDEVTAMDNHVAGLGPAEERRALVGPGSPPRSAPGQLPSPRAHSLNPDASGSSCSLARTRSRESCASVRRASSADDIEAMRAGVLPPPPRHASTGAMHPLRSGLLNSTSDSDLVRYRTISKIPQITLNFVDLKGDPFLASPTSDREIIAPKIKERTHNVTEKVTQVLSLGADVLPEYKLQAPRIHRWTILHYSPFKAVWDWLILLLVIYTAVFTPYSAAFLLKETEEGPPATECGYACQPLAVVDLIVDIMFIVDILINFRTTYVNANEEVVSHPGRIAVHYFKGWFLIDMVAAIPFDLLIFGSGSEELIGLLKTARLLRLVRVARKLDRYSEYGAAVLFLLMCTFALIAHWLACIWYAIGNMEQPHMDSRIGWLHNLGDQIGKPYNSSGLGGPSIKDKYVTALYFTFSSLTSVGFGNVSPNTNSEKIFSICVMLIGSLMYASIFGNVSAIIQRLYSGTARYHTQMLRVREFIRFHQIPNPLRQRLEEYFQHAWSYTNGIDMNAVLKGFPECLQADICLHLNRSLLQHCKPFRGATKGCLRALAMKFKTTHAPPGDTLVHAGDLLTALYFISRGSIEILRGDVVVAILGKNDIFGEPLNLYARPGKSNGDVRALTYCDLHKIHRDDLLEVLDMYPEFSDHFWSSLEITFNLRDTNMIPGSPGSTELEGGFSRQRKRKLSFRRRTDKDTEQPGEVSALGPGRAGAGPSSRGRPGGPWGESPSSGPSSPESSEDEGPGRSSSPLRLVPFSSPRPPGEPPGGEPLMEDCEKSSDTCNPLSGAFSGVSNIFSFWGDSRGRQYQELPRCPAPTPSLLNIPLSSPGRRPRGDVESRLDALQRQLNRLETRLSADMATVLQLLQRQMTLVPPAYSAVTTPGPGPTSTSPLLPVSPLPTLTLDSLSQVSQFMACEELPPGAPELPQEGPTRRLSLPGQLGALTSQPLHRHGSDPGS
Chain of human D2 receptor (P14416 whole entry): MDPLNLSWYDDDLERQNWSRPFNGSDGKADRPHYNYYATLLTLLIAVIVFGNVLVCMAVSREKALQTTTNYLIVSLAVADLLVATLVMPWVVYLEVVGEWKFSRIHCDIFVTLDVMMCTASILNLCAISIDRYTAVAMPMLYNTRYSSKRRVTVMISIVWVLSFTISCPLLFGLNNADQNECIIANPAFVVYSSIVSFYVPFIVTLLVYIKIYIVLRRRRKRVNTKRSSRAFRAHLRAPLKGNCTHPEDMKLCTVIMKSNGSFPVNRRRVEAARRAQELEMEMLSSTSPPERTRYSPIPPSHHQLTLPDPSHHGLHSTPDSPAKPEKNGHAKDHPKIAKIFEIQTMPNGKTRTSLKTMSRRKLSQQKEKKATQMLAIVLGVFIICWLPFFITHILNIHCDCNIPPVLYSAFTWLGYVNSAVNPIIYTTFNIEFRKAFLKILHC
Chain of human 5-HT2A receptor (P28223 whole entry): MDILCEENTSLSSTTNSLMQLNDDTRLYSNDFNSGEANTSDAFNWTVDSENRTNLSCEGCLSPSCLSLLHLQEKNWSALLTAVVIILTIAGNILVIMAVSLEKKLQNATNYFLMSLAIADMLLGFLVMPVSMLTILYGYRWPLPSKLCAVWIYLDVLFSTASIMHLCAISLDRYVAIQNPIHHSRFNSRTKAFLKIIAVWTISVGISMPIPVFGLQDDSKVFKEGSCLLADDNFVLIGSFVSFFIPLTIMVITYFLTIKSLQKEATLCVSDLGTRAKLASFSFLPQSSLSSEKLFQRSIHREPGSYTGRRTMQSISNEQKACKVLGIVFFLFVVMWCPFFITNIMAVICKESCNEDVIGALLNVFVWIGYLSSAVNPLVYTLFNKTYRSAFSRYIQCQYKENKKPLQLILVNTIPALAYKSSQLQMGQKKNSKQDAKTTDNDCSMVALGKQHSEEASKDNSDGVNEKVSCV

What is called Ki is the dissociation constant of the complex between target and ligand, obtained from inhibition or displacement. For orientation: IC50 means the concentration needed to halve the response being measured. The low end stands for greater potency, the high end for weaker potency. With `CCN(CCN1CCC(c2c[nH]c3ccccc23)CC1)S(=O)(=O)CCO` [Example 57], the Ki came out at 8.7 nM at human 5-HT7 receptor [1] and 210 nM at human D2 receptor. Further, the IC50 at human 5-HT2A receptor is 56 nM; on human 5-HT7 receptor [2], 100 nM. Besides, the “Metabolic stability in human hepatic microsome” value (“Metabolic stability” for short) in data set [3] came out at 0.06 mL/min/mg protein.
Turning to `CCN(CCN1CCC(c2noc3cc(F)ccc23)CC1)C(=O)CCO` [Example 17, N-Ethyl-N-{2-[4-(6-fluoro-1,2-benzoisoxazol-3-yl)piperidin-1-yl]ethyl}-3-hydroxypropanamide], the IC50 against human 5-HT7 receptor [2] was determined as 66 nM; against hERG channel, 2800 nM. In addition, the “Metabolic stability” value in data set [3] is recorded as under 0.05 mL/min/mg protein; in data set [4] it was 0.0025 mL/min/mg protein. Moreover, the Predicted half-life in data set [5] is listed as 27 h.
`CCN(CCN1CCC(c2noc3cc(F)ccc23)CC1)C(=O)[C@H](C)O` [Example 16, (2S)—N-Ethyl-N-{2-[4-(6-fluoro-1,2-benzoisoxazol-3-yl)piperidin-1-yl]ethyl}-2-hydroxypropanamide]: the “Metabolic stability” value is on record as under 0.05 mL/min/mg protein in data set [3] and 0.018 mL/min/mg protein in data set [4]. Also, the Predicted half-life in data set [5] is 3 h. This compound also yielded an IC50 against hERG channel of 4800 nM.
For the compound `CCN(CCN1CCC(n2ccc3cc(F)ccc32)CC1)C(=O)C(C)O` (stereo not shown) [Example 50], the Ki at human 5-HT7 receptor [1] is 13.5 nM; on human D2 receptor, over 1000 nM. The IC50 was 49 nM at human 5-HT2A receptor and 81 nM against human 5-HT7 receptor [2]. In addition, in data set [3], the “Metabolic stability” value is listed as under 0.05 mL/min/mg protein.
In the case of `CCN(CCN1CCC(c2noc3cc(F)ccc23)CC1)C(=O)C(O)C(C)C` (stereo not shown) [Example 8], the Ki on human 5-HT7 receptor [1] stood at 6.2 nM; at human D2 receptor, 294 nM. Besides, the IC50 on human 5-HT7 receptor [2] is 8 nM; at hERG channel, 4200 nM. The “Metabolic stability” value in data set [3] amounted to 0.108 mL/min/mg protein.
For `CCN(CCN1CCC(c2c[nH]c3ccccc23)CC1)C(=O)[C@@H](C)O` [Example 49], the Ki on human 5-HT7 receptor [1] was 22.6 nM; on human D2 receptor, over 1000 nM. Besides, the IC50 on human 5-HT7 receptor [2] is 16 nM; against hERG channel it was over 10000 nM. Moreover, the “Metabolic stability” value in data set [3] is given as under 0.05 mL/min/mg protein.
On to `CCN(CCN1CCN(c2noc3cc(F)ccc23)CC1)C(=O)C(C)O` (stereo not shown) [Example 27], for which the Ki on human 5-HT7 receptor [1] worked out at 11.1 nM; on human D2 receptor, 2160 nM. Moreover, the IC50 is 73 nM at human 5-HT7 receptor [2] and over 10000 nM at hERG channel. Besides, the “Metabolic stability” value in data set [3] is under 0.05 mL/min/mg protein.
In the same order, the values of `CCN(CCN1CCC(c2noc3cc(F)ccc23)CC1)C(=O)C1CNCC1O` (stereo not shown) [Example 66] are 5.4 nM, 212 nM, 70 nM, over 10000 nM and under 0.05 mL/min/mg protein.
In the same order, the values of `CCN(CCCN1CCC(c2noc3cc(F)ccc23)CC1)S(=O)(=O)C(C)CO` (stereo not shown) [Example 56] are 0.4 nM, under 100 nM, 6 nM, 2100 nM and under 0.05 mL/min/mg protein.
The matching figures for `CCN(CCN1CCC(c2noc3ccccc23)CC1)C(=O)C(C)O` (stereo not shown) [Example 25]: 7.7 nM, 1390 nM, 26 nM, over 10000 nM and under 0.05 mL/min/mg protein.
Turning to `CCN(CCN1CCC(c2noc3cc(F)ccc23)CC1)C(=O)C1CNCCC1O` (stereo not shown) [Example 67], the Ki is 0.9 nM on human 5-HT7 receptor [1] and under 100 nM at human D2 receptor. Besides, the IC50 against human 5-HT7 receptor [2] was 72 nM; against hERG channel, over 10000 nM. In addition, the “Metabolic stability” value in data set [3] is listed as under 0.05 mL/min/mg protein.
The matching figures for `CCN(CCN1CCC(c2noc3cc(F)ccc23)CC1)C(=O)C(C)CO` (stereo not shown) [Example 37]: 1.1 nM, under 100 nM, 66 nM, over 10000 nM and under 0.05 mL/min/mg protein.
In the same order, the values of `CC(C)N(CCN1CCC(c2noc3cc(F)ccc23)CC1)C(=O)[C@H](C)O` [Example 41] are 1.8 nM, under 100 nM, 7 nM, 6700 nM and under 0.05 mL/min/mg protein.
The matching figures for `CCN(CCN1CCC(c2noc3cc(F)ccc23)CC1)C(=O)C1(O)CCCN(C(C)=O)C1` (stereo not shown) [Example 72]: 10.6 nM, under 100 nM, 8 nM, 9900 nM and 0.057 mL/min/mg protein.
Regarding `CCN(CCN1CCC(c2noc3cc(F)ccc23)CC1)C(=O)C1(O)CCNC1` (stereo not shown) [Example 70], the Ki amounted to 3.7 nM on human 5-HT7 receptor [1] and 52 nM at human D2 receptor. Further, the IC50 was 9 nM against human 5-HT7 receptor [2] and over 10000 nM on hERG channel. Also, in data set [3], the “Metabolic stability” value is recorded as under 0.05 mL/min/mg protein.
As for `CC(O)C(=O)N(CCN1CCC(c2noc3cc(F)ccc23)CC1)CC1CC1` (stereo not shown) [Example 30], the Ki on human 5-HT7 receptor [1] came out at 6.6 nM; on human D2 receptor, 153 nM. In addition, the IC50 turned out to be 39 nM at human 5-HT7 receptor [2] and 1200 nM against hERG channel. The “Metabolic stability” value in data set [3] is listed as under 0.05 mL/min/mg protein.
Regarding `CCN(CCN1CCC(c2noc3cc(F)ccc23)CC1)C(=O)C1CN(C)CCC1O` (stereo not shown) [Example 76, N-Ethyl-N-{2-[4-(6-fluoro-1,2-benzoisoxazol-3-yl)piperidin-1-yl]ethyl}-4-hydroxy-1-methylpiperidine-3-carboxamide], the Ki at human 5-HT7 receptor [1] came out at 14.4 nM; on human D2 receptor, 193 nM. The IC50 against human 5-HT7 receptor [2] is 65 nM; on hERG channel, over 10000 nM. For the same compound, the “Metabolic stability” value in data set [3] is under 0.05 mL/min/mg protein.
The matching figures for `CCN(CCN1CCC(c2c[nH]c3cc(F)ccc23)CC1)C(=O)CCO` [Example 48]: 2.7 nM, 80 nM, 18 nM, 2900 nM and under 0.05 mL/min/mg protein.
In the case of `CCN(CCN1CCC(c2noc3cc(F)ccc23)CC1)C(=O)C(C)(C)CO` [Example 7], the Ki was 1 nM at human 5-HT7 receptor [1] and 79 nM on human D2 receptor. In addition, the IC50 against human 5-HT7 receptor [2] stood at 11 nM; on hERG channel it was 3500 nM. In addition, in data set [3], the “Metabolic stability” value is recorded as 0.08 mL/min/mg protein.
